The values that follow come from patent publication US11812767B2, “Beverage having Reb D and Reb M” (SUNTORY HOLDINGS LIMITED, priority 2018, dated 2023).

The conditions of series [1]: cited from earlier work.
A short description of series [2]: Degradation of Reb D and Reb M in phosphate buffer at 40° C. for 8 weeks, analysed by HPLC. The format is physicochemical. The conditions noted are these: for % Reb M degradation 2 weeks: 2 weeks at 40° C.; for % Reb M degradation 4 weeks: 4 weeks at 40° C.; for % Reb M degradation 6 weeks: 6 weeks at 40° C.; for % Reb M degradation 8 weeks: 8 weeks at 40° C. Here is the method: A study was carried out as follows, samples were prepared comprising 50 ppm, 150 ppm, 250 ppm and 400 ppm, of Reb D and samples with the following ratios of Reb D:Reb M 1:4, 1:1, 4:1 wherein the total concentration of the sample was 400 ppm. The samples were prepared in phosphate buffer and the pH was adjusted using phosphoric acid. Samples were prepared at the following pH; 2.0, 2.5, 3.0 and 3.5. These samples were incubated at 40° C. for 8 weeks. This incubation protocol should mimic the degradation at room temperature over 6 months. The amount of Reb D and Reb M in each sample at T=0 was calculated by HPLC this was then used to calculate the amount of remaining Reb M in each sample at each specified time point. Aliquots were taken at 2, 4, 6 and 8 weeks and analysed by HPLC to determine the degradation of Reb D and combinations of Reb D and Reb M over the 8 week study.

The mark [3] stands for this setting: pH 2, Reb D 0.008 % w/w + Reb M 0.032 % w/w.
Where [4] appears, read: pH 2, Reb D 0.02 % w/w + Reb M 0.02 % w/w.
[5] abbreviates: pH 2, Reb D 0.032 % w/w + Reb M 0.008 % w/w.
Where [6] appears, read: pH 2.5, Reb D 0.008 % w/w + Reb M 0.032 % w/w.
Setting [7] is: pH 2.5, Reb D 0.02 % w/w + Reb M 0.02 % w/w.
The mark [8] stands for this setting: pH 2.5, Reb D 0.032 % w/w + Reb M 0.008 % w/w.
Setting [9] is: pH 3, Reb D 0.008 % w/w + Reb M 0.032 % w/w.
Setting [10] is: pH 3, Reb D 0.02 % w/w + Reb M 0.02 % w/w.
[11] abbreviates: pH 3, Reb D 0.032 % w/w + Reb M 0.008 % w/w.
Setting [12] is: pH 3.5, Reb D 0.008 % w/w + Reb M 0.032 % w/w.
[13] abbreviates: pH 3.5, Reb D 0.02 % w/w + Reb M 0.02 % w/w.
Setting [14] is: pH 3.5, Reb D 0.032 % w/w + Reb M 0.008 % w/w.

On to Rebaudioside B, for which the “Sweetness potency (relative to sucrose)” value in series [1] is on record as 150.

As for `C=C1C[C@@]23CC[C@H]4[C@@](C)(CCC[C@@]4(C)C(=O)O[C@@H]4O[C@H](CO)[C@@H](O)[C@H](O)[C@H]4O)[C@@H]2CC[C@]1(O[C@@H]1O[C@H](CO)[C@@H](O)[C@H](O[C@@H]2O[C@H](CO)[C@@H](O)[C@H](O)[C@H]2O)[C@H]1O[C@@H]1O[C@H](CO)[C@@H](O)[C@H](O)[C@H]1O)C3` [Rebaudioside A], the “Sweetness potency (relative to sucrose)” value in series [1] is 200-300.

Rebaudioside F: in series [1], the “Sweetness potency (relative to sucrose)” value is 200.

Consider `C=C1C[C@@]23CC[C@H]4[C@@](C)(CCC[C@@]4(C)C(=O)O[C@@H]4O[C@H](CO)[C@@H](O)[C@H](O[C@@H]5O[C@H](CO)[C@@H](O)[C@H](O)[C@H]5O)[C@H]4O[C@@H]4O[C@H](CO)[C@@H](O)[C@H](O)[C@H]4O)[C@@H]2CC[C@]1(O[C@@H]1O[C@H](CO)[C@@H](O)[C@H](O[C@@H]2O[C@H](CO)[C@@H](O)[C@H](O)[C@H]2O)[C@H]1O[C@@H]1O[C@H](CO)[C@@H](O)[C@H](O)[C@H]1O)C3` [Reb M, rebaudioside M], for which the “% Reb M degradation 2 weeks” value is 28% in series [2] (setting [3]); 25% in series [2] (setting [4]); 35% in series [2] (setting [5]); 3% in series [2] (setting [6]); 6% in series [2] (setting [7]); 4% in series [2] (setting [8]). Moreover, the “% Reb M degradation 2 weeks” value in series [2] (setting [9]), in series [2] (setting [10]), in series [2] (setting [11]), in series [2] (setting [12]), in series [2] (setting [13]) and in series [2] (setting [14]) was 0% throughout. For the same compound, the “% Reb M degradation 4 weeks” value in series [2] (setting [3]) was 55%; in series [2] (setting [4]), 56%; in series [2] (setting [5]), 59%; in series [2] (setting [6]), 22%; in series [2] (setting [7]) it was 20%; in series [2] (setting [8]), 18%. Also, the “% Reb M degradation 4 weeks” value in series [2] (setting [9]) is 11%; in series [2] (setting [10]), 10%; in series [2] (setting [11]), 7%; in series [2] (setting [12]), 4%; in series [2] (setting [13]), 3%; in series [2] (setting [14]) it was 0%. Moreover, the “% Reb M degradation 6 weeks” value in series [2] (setting [3]) is recorded as 71%; in series [2] (setting [4]), 69%; in series [2] (setting [5]), 72%; in series [2] (setting [6]), 31%; in series [2] (setting [7]), 29%; in series [2] (setting [8]), 28%. The “% Reb M degradation 6 weeks” value in series [2] (setting [9]) is recorded as 15%; in series [2] (setting [10]), 14%; in series [2] (setting [11]) it was 12%; in series [2] (setting [12]), 4%; in series [2] (setting [13]) it was 4%; in series [2] (setting [14]) it was 2%. The “% Reb M degradation 8 weeks” value in series [2] (setting [3]) was determined as 80%; in series [2] (setting [4]), 78%; in series [2] (setting [5]) it was 80%; in series [2] (setting [6]) it was 38%; in series [2] (setting [7]), 38%; in series [2] (setting [8]), 38%. Besides, the “% Reb M degradation 8 weeks” value in series [2] (setting [9]) is listed as 17%; in series [2] (setting [10]), 17%; in series [2] (setting [11]), 15%; in series [2] (setting [12]), 6%; in series [2] (setting [13]) it was 7%; in series [2] (setting [14]) it was 5%. Besides, in series [1], the “Sweetness potency (relative to sucrose)” value was 200-250.

For the compound `C=C1C[C@@]23CC[C@H]4[C@@](C)(CCC[C@@]4(C)C(=O)O[C@@H]4O[C@H](CO)[C@@H](O)[C@H](O)[C@H]4O)[C@@H]2CC[C@]1(O[C@@H]1O[C@H](CO)[C@@H](O)[C@H](O)[C@H]1O)C3` [Rubusoside], in series [1], the “Sweetness potency (relative to sucrose)” value was 114.

For `C=C1C[C@@]23CC[C@H]4[C@@](C)(CCC[C@@]4(C)C(=O)O[C@@H]4O[C@H](CO)[C@@H](O)[C@H](O)[C@H]4O[C@@H]4O[C@H](CO)[C@@H](O)[C@H](O)[C@H]4O)[C@@H]2CC[C@]1(O[C@@H]1O[C@H](CO)[C@@H](O)[C@H](O)[C@H]1O[C@@H]1O[C@H](CO)[C@@H](O)[C@H](O)[C@H]1O)C3` [Rebaudioside E], the “Sweetness potency (relative to sucrose)” value in series [1] is reported as 174.

For the compound `C=C1C[C@@]23CC[C@H]4[C@@](C)(CCC[C@@]4(C)C(=O)O)[C@@H]2CC[C@]1(O[C@@H]1O[C@H](CO)[C@@H](O)[C@H](O)[C@H]1O[C@@H]1O[C@H](CO)[C@@H](O)[C@H](O)[C@H]1O)C3` [Steviolbioside], in series [1], the “Sweetness potency (relative to sucrose)” value is listed as 90.

For `C=C1C[C@@]23CC[C@H]4[C@@](C)(CCC[C@@]4(C)C(=O)O[C@@H]4O[C@H](CO)[C@@H](O)[C@H](O)[C@H]4O)[C@@H]2CC[C@]1(O[C@@H]1O[C@H](CO)[C@@H](O)[C@H](O)[C@H]1O[C@@H]1O[C@H](CO)[C@@H](O)[C@H](O)[C@H]1O)C3` [Stevioside], in series [1], the “Sweetness potency (relative to sucrose)” value is 150-250.

On to Rebaudioside C, for which the “Sweetness potency (relative to sucrose)” value in series [1] is recorded as 30.
